From US20170340698A1, “CYCLIC PEPTIDE SPECIFICALLY BINDING TO APOPTOTIC CELLS AND USE THEREOF” (KYUNGPOOK NATIONAL UNIVERSITY INDUSTRY-ACADEMIC COOPERATION …, priority 2014, published 2017)
Residues, ends and D or L forms follow the SMILES beside them.

Tests used:
[1] = system: SNU-16 stomach tumor xenografts; assay: Anti-tumor treatment of mice: tumor volume, tumor weight, TUNEL staining; assay type: in vivo; conditions: cisplatin 5 mg/kg i.p. once per week, cetuximab 1.5 mg/kg i.p. twice per week, two weeks; measured over three weeks
Protocol: Eight-week old female athymic (nu/nu) Balb/c mice were purchased from Orient laboratories (Seongnam, Korea) and were housed under specific-pathogen-free (SPF) conditions with laboratory chow and water ad libitum. Stomach tumor xenografts were established by subcutaneously injecting 1×10^7 SNU-16 cells in 100 ml saline into the right flank. Tumors were allowed to reach 50-60 mm^3 of volume before randomization and initiation of treatment. […] In the present experiment, a total of two rounds of anticancer drug treatment were conducted for two weeks. Changes in tumor size were measured using an automatic caliper over three weeks. Tumor volumes were calculated using the formula: volume=(length×width×height)/2. Tumor weights were measured after isolation of tumor mass.
To examine anti-tumor growth effect by cisplatin or cetuximab alone and in combination, tumor volumes and weights after the drug treatment were measured.

[2] = Stability of peptides in the serum (C18 reverse phase FPLC, MS); assay type: in vitro ADME, mice; conditions: mouse serum
Excerpt: Peptide stability in the serum was examined by the same method referring to the following documents Yoo S A, Bae D G, Ryoo J W, Kim H R, Park G S, et al. (2005) Arginine-rich antivascular endothelial growth factor (anti-VEGF) hexapeptide inhibits collageninduced arthritis and VEGF-stimulated productions of TNF-alpha and IL-6 by human monocytes. J Immunol 174: 5846-5855. Blood from mice was collected, and then serum was collected by centrifugation at 4[…], followed by filtration through 0.22 um-pore filter. […] The flow rate was 0.3 ml/min, and analyzed by C18 reverse phase FPLC using a linear gradient of 20% from 0 to 100% using acetonitrile through a linear graduation of 20% (Vydac protein and peptide C18, 0.1% trifluoroacetate in water for equilibration, and 0.1% trifluoroacetate in acetonitrile for elution) (Life Technologies, Carlsbad, Calif.). […]
It was examined whether higher levels of imaging signals by the cyclic form of ApoPep-1 compared with those of the linear form of ApoPep-1 was due to the difference in serum stability of peptides. After incubation of the linear or cyclic form of ApoPep-1 with mouse serum up to 24 hours, the amount of the peptide remaining in the serum was analyzed. […]

| SMILES | tumor volume compared with control group treated without drug [1] | amount of peptide remaining in the serum (peak area) ([2]; 37 degrees, up to 24 hours) | presence of peptide in serum by MS after incubation ([2]; incubation for 24 hours, MS of FPLC peak) |
| --- | --- | --- | --- |
| N.N.[Cl][Pt][Cl] [cisplatin] | reduced tumor volumes | – | – |
| N=C(N)NCCC[C@H](NC(=O)[C@@H]1CCCN1C(=O)[C@@H]1CCCN1C(=O)[C@H](CCCNC(=N)N)NC(=O)[C@H](CCC(N)=O)NC(=O)[C@@H](N)CS)C(=O)O [linear form of ApoPep-1, CQRPPR, reference compound] (H-CQRPPR-OH; N-terminus and C-terminus assumed) | – | not significantly changed | stably present |
